Laboratory results taken from patent US8129355B2, “Ketone ligands for modulating the expression of exogenous genes via an ecdysone receptor complex” (priority 2002, dated 2012).

Experiments:
[1] = molecular target: T1, GAL4 DBD (1-147)-CfEcR(DEF)/VP16AD-βRXREF-LmUSPEF (Choristoneura fumiferana, UniProt O77240); test: 27-63 assay: luciferase reporter gene expression in stable CHO cell clone 27-63; settings: single dose 33 μM; RLU ligand treated / RLU DMSO treated cells
T1 sequence (O77240 191-513): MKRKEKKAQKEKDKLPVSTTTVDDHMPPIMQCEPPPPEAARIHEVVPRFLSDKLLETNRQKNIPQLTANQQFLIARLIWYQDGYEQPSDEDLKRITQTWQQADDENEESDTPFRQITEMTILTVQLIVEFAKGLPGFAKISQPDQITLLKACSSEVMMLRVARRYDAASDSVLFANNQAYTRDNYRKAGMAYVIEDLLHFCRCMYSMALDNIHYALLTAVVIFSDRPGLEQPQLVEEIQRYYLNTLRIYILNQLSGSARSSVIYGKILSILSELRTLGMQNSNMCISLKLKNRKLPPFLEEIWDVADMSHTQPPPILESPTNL
T1 sequence (P28702 296-455 partner limits assumed): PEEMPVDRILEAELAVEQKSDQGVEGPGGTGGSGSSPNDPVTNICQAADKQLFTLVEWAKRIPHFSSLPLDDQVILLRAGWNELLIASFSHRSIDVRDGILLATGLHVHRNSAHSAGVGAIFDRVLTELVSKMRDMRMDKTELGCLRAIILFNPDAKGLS
From the text: GAL4 DBD (1-147)-CfEcR(DEF)/VP16AD-βRXREF-LmUSPEF: The wild-type D, E, and F domains from spruce budworm Choristoneura fumiferana EcR (“CfEcR-DEF”; SEQ ID NO: 1) were fused to a GAL4 DNA binding domain (“Gal4 DBD1-147”; nucleotides 31 to 471 of SEQ ID NO: 2) and placed under the control of a phosphoglycerate kinase promoter (“PGK”; SEQ ID NO: 3). Helices 1 through 8 of the EF domains from Homo sapiens RXRβ and helices 9 through 12 of the EF domains of Locusta migratoria Ultraspiracle Protein (“HsRXRβ-EF-LmUSP-EF”; SEQ ID NO: 4) were fused to the transactivation domain from VP16 (“VP16AD”; SEQ ID NO: 5) and placed under the control of an elongation factor-1α promoter (“EF-1α”; SEQ ID NO: 6). Five consensus GAL4 response element binding sites (“5XGAL4RE”; comprising 5 copies of a GAL4RE comprising SEQ ID NO: 7) were fused to a synthetic TATA minimal promoter (SEQ ID NO: 8) and placed upstream of the luciferase reporter gene (SEQ ID NO: 9).
CHO cells were transiently transfected with transcription cassettes for GAL4 DBD (1-147) CfEcR(DEF) and for VP16AD βRXREF-LmUSPEF controlled by ubiquitously active cellular promoters (PGK and EF-1α, respectively) on a single plasmid. Stably transfected cells were selected by Zeocin resistance. Individually isolated CHO cell clones were transiently transfected with a GAL4 RE-luciferase reporter (pFR Luc). 27-63 clone was selected using Hygromycin.
Cells were trypsinized and diluted to a concentration of 2.5×10^4 cells mL. 100 μL of cell suspension was placed in each well of a 96 well plate and incubated at 37° C. under 5% CO2 for 24 h. Ligand stock solutions were prepared in DMSO and diluted 300 fold for all treatments. Dose response testing consisted of 8 concentrations ranging from 33 μM to 0.01 μM.
Luciferase reporter gene expression was measured 48 h after cell treatment using Bright-Glo™ Luciferase Assay System from Promega (E2650). Luminescence was detected at room temperature using a Dynex MLX microtiter plate luminometer.
Fold inductions were calculated from single dose testing by dividing relative light units (RLU) in ligand treated cells by RLU in DMSO treated cells. BC50s were calculated from dose response data using a three-parameter logistic model.

[2] = molecular target: T2, Bombyx mori EcR (VP16 fusion, switch construct CVBE) with 6XEcRE LacZ reporter (Bombyx mori, UniProt P49881); test: Z3 assay: β-galactosidase (LacZ) reporter gene fold induction in stably transformed human 293 kidney cells (clone Z3); format: cell-based; settings: single dose 33 μM; ligand treated / DMSO treated cells
T2 construct: expressed in transfected cells; host or cells: Human 293 kidney (HEK-293) cells, retrovirally infected, clone Z3
T2 sequence (P49881 86-606 limits assumed): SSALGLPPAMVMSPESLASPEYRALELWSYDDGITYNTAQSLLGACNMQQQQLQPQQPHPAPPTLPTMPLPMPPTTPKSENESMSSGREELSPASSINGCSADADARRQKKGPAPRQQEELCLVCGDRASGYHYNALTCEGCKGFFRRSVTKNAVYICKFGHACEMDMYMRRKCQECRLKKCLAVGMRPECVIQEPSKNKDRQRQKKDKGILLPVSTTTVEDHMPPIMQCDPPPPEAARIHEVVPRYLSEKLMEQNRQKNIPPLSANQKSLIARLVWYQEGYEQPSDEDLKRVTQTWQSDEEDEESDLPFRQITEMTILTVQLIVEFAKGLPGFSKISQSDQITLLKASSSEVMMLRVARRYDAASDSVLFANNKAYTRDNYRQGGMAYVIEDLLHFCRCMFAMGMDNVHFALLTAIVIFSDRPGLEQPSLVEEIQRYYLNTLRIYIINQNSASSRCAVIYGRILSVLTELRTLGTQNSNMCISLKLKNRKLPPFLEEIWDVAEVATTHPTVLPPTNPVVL
T2 sequence (P19793 1-462 partner): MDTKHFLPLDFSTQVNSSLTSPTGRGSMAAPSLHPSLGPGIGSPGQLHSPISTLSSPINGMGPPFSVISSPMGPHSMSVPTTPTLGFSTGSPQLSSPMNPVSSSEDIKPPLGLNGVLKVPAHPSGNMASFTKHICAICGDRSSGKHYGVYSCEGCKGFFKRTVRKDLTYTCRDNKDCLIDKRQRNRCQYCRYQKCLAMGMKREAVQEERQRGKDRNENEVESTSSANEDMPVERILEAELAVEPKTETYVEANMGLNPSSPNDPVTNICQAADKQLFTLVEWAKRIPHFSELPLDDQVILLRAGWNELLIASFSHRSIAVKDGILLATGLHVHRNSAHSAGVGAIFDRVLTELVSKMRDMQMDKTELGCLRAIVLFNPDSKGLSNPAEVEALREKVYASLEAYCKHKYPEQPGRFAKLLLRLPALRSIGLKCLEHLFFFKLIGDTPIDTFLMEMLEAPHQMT
From the text: Dr. F. Gage provided a population of stably transformed cells containing CVBE and 6XEcRE as described in Suhr, S. T., Gil, E. B., Senut M. C., Gage, F. H. (1998) Proc. Natl. Acad. Sci. USA 95, 7999-804. Human 293 kidney cells, also referred to as HEK-293 cells, were sequentially infected with retroviral vectors encoding first the switch construct CVBE, and subsequently the reporter construct 6XEcRE Lac Z. The switch construct contained the coding sequence for amino acids 26-546 from Bombyx mori EcR (BE) (Iatrou) inserted in frame and downstream of the VP16 transactivation domain (VBE). A synthetic ATG start codon was placed under the control of cytomegalovirus (CVBE) immediate early promoter and flanked by long terminal repeats (LTR). The reporter construct contained six copies of the ecdysone response element (EcRE) binding site placed upstream of LacZ and flanked on both sides with LTR sequences (6XEcRE).
Dilution cloning was used to isolate individual clones. Clones were selected using 450 ug/mL G418 and 100 ng/mL puromycin. Individual clones were evaluated based on their response in the presence and absence of test ligands. Clone Z3 was selected for screening and SAR purposes.
Human 293 kidney cells stably transformed with CVBE and 6XEcRE lack were maintained in Minimum Essential Medium (Mediates, 10-010-CV) containing 10% FBS (Life Technologies, 26140-087), […] G418 (Mediates, 30-234-CR), and […] (Sigma, P-7255), at 37° C. in an atmosphere containing 5% CO2 and were subculture when they reached 75% confluence.
Z3 cells were seeded into 96-well tissue culture plates at a concentration of 2.5×10^3 cells per well and incubated at 37° C. in 5% CO2 for twenty-four hours. Stock solutions of ligands were prepared in DMSO. Ligand stock solutions were diluted 100 fold in media and 50 μL of this diluted ligand solution (33 μM) was added to cells. The final concentration of DMSO was maintained at […] in both controls and treatments.
Reporter gene expression was evaluated 48 hours after treatment of cells, β-galactosidase activity was measured using Gal Screen™ bioluminescent reporter gene assay system from Tropix (GSY1000).
Flanking both constructs are long terminal repeats, G418 and puromycin are selectable markers, CMV is the cytomegalovirus promoter, VBE is coding sequence for amino acids 26-546 from Bombyx mori EcR inserted downstream of the VP16 transactivation domain, 6×EcRE is six copies of the ecdysone response element, lacZ encodes for the reporter enzyme β-galactosidase. Suhr, S. T., Gil, E. B., Senut M. C., Gage, F. H. (1998) Proc. Natl. Acad. Sci. USA 95, 7999-804. Swevers, L., Drevet, J. R., Lunke, M. D., Iatrou, K. (1995) Insect Biochem. Mol. Biol. 25, 857-866.

Row | SMILES | Fold Induction Average, 27-63 Assay (33 μM) [1] | Fold Induction Average, Z3 Assay (33 μM) [2]
1 | COc1cccc(C(=O)NC2(C(=O)c3cc(C)cc(C)c3)CCCN(C(=O)OC(C)(C)C)C2)c1C (racemic) [Example 146] | 1 | 1
2 | COc1cccc(C(=O)NC2(C(=O)c3cc(C)cc(C)c3)CCCNC2)c1C (racemic) [Example 148] | 2 | 7
3 | COc1cccc(C(=O)NC2(C(=O)c3cc(C)cc(C)c3)CCCN(C(C)=O)C2)c1C (racemic) [Example 153] | 1 | 3
4 | COc1cccc(C(=O)NC2(C(=O)c3cc(C)cc(C)c3)CCCN(S(C)(=O)=O)C2)c1C (racemic) [Example 155] | 2 | 4
5 | CCNC(=O)N1CCCC(NC(=O)c2cccc(OC)c2C)(C(=O)c2cc(C)cc(C)c2)C1 (racemic) [Example 160] | 1 | 1
